“And” between values parts separate entries of the source, which are not always exact repeats. Equal entries are not always repeated.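 How tested: cells in 96-well plates exposed to compound for 48 hours at five concentrations. Here, GI50 denotes the concentration required for 50% inhibition of growth. Definition used: TGI = concentration required for complete inhibition of growth.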
Experiments:
Assay in all cases: DTP human tumour cell line panel, 48 h
[1] = system: SF-295 CNS
[2] = system: ACHN renal
[3] = system: HCT-116 colon
[4] = system: SN12C renal
[5] = system: KM12 colon
[6] = system: SK-MEL-2 melanoma
[7] = system: SK-OV-3 ovarian
[8] = system: NCI-H23 lung
[9] = system: SF-539 CNS
[10] = system: DU-145 prostate

| Compound | GI50 [1] | TGI [1] | GI50 [2] | TGI [2] | GI50 [3] | TGI [3] | GI50 [4] | TGI [4] | GI50 [5] | TGI [5] | GI50 [6] | TGI [6] | GI50 [7] | TGI [7] | GI50 [8] | TGI [8] | GI50 [9] | TGI [9] | GI50 [10] | TGI [10] |
| --- | --- | --- | --- | --- | --- | --- | --- | --- | --- | --- | --- | --- | --- | --- | --- | --- | --- | --- | --- | --- |
| CCCCN(CCCC)C(=O)[C@H](CC)[C@@H]1CC[C@@H](C)[C@@H]([C@H](C)[C@@H](O)[C@@H](C)C(=O)[C@H](CC)C2O[C@]3(C=C[C@@H](O)[C@]4(CC[C@@](C)([C@H]5CC[C@](O)(CC)[C@H](C)O5)O4)O3)[C@H](C)C[C@@H]2C)O1 (stereo not given in full) | 2.06 µM | 6.38 µM | 3.04 µM | 10.5 µM | 2390 nM | 6.9 µM | 2.13 µM | 7.34 µM | 1830 nM | 3.91 µM | 2.67 µM | 7.53 µM | 3.38 µM | > 100 µM | 2.17 µM | 5.96 µM | 1880 nM | 4.2 µM | 2.61 µM | 6.42 µM |
| CCOC(=O)[C@@H](C)C[C@H](Cc1ccccc1)NC(=O)c1csc([C@@H](C[C@H](C(C)C)N(C)C(=O)[C@@H](NC(=O)[C@H]2CCCCN2C)C(C)(C)CC)OC(C)=O)n1 | < 0.00167 µM | 1.87 µM | 0.00225 µM | > 14.1 µM | < 1.67 nM | 3.02 µM | 0.00247 µM | 5.9 µM | < 1.67 nM | > 16.7 µM | < 0.00167 µM | > 16.7 µM | < 0.00167 µM | > 16.7 µM | 0.00251 µM | > 16.7 µM | 2.26 nM | 0.00791 µM | < 0.00167 µM | – |
| C/C(=N\O)c1ccc2ccc3ccccc3c2c1 | – | 86.9 µM | – | > 100 µM | – | > 100 µM | – | > 100 µM | – | 45 µM | – | > 100 µM | – | > 100 µM | – | > 100 µM | – | 38.8 µM | – | > 100 µM |
| O=C1/C(=C/c2ccc(Cl)c(Cl)c2)CN(C(=O)C(Cl)Cl)C/C1=C\c1ccc(Cl)c(Cl)c1 | 0.154 µM | 0.704 µM | 0.179 µM | 0.474 µM | 31.5 nM | 0.12 µM | 0.139 µM | 0.461 µM | 160 nM | 0.587 µM | 0.801 µM | 3.14 µM | 0.558 µM | 1.82 µM | 0.136 µM | 0.567 µM | 184 nM | 0.444 µM | 0.369 µM | 1.41 µM |
| Cc1cc(=O)oc2ccc(OC/C=C3\CCC(=O)O3)cc12 | 15.3 µM | 41.9 µM | 0.936 µM | 2.14 µM | 3820 nM | 15.1 µM | 13.5 µM | 31.4 µM | 7760 nM | 25.5 µM | 10.7 µM | 30.6 µM | 13.1 µM | 26.2 µM | 10.4 µM | 25.2 µM | 7950 nM | 25.5 µM | 3.62 µM | 17.7 µM |
| CSc1ccc(C2=C(c3ccccc3)C(=O)OC2)cc1 | 0.597 µM | 1.98 µM | 0.517 µM | 33.4 µM | 637 nM | 61.7 µM | 7.68 µM | > 100 µM | 356 nM | > 77 µM | 1.64 µM | > 100 µM | 1.51 µM | > 100 µM | 3.78 µM | > 41.1 µM | 1490 nM | 12.3 µM | 4.49 µM | > 100 µM |
| c1ccc(-c2oc(-c3ccccc3)c(CN3CCCCC3)c2CN2CCCCC2)cc1 | 2.05 µM | 6.58 µM | 2.54 µM | 10.2 µM | 1050 nM | 11.2 µM | 2.84 µM | 12.4 µM | 2900 nM | 10.4 µM | 3.72 µM | 15.7 µM | 3.97 µM | 17 µM | 3.21 µM | 13 µM | 1680 nM | 3.47 µM | 7.72 µM | 21.6 µM |
| CN=C(N)c1ccc(N=C(N)c2ccc(-c3ccc(C(N)=Nc4ccc(C(N)=NC)cc4)cc3)cc2)cc1 | 41.1 µM | > 100 µM | > 100 µM | > 100 µM | 75800 nM | > 100 µM | > 100 µM | > 100 µM | 61900 nM | > 100 µM | 35.1 µM | > 100 µM | > 100 µM | > 100 µM | > 100 µM | > 100 µM | > 100000 nM | > 100 µM | 41.2 µM | > 100 µM |
| C#Cc1cccc(Nc2ncnc3cc(NC(=O)CCl)ccc23)c1 | 3.51 µM | 6.95 µM | 2.14 µM | 5.66 µM | 1190 nM | 4.15 µM | 1.29 µM | 4.81 µM | 3290 nM | 7.13 µM | 3.82 µM | 7.77 µM | 3.5 µM | 11.5 µM | 3.26 µM | 8.01 µM | 3480 nM | 6.82 µM | 2.8 µM | 5.91 µM |
| COc1cc2oc(-c3cccc(C(=O)Nc4ccc(Cl)cc4)c3)cc(=O)c2c(OC)c1OC | 1.47 µM | 3.51 µM | 3.17 µM | > 100 µM | 1900 nM | > 100 µM | 3.49 µM | > 100 µM | 2370 nM | > 100 µM | 2.96 µM | 9.22 µM | 3.41 µM | > 100 µM | 3.6 µM | > 100 µM | 2560 nM | > 100 µM | 2.85 µM | > 100 µM |
| CN1CCN(CC(=O)N(C)c2ccc(N=C(c3ccccc3)c3c(O)[nH]c4ccc(C#N)cc34)cc2)CC1 | 3.14 µM | 15.8 µM | 3.06 µM | 10.9 µM | 1020 nM | 2.47 µM | 1.56 µM | 11.4 µM | 51.6 nM | 6.03 µM | 3.39 µM | 15.7 µM | 0.614 µM | 21.1 µM | 2.87 µM | 12.2 µM | 961 nM | 2.23 µM | 3.9 µM | 14.4 µM |
| COc1cc2cc(Oc3ccc(NC(=O)Nc4cc(C(F)(F)F)cc(C(F)(F)F)c4)cc3)c(C)nc2cc1OCCN1CCOCC1 | 1.14 µM | 2.92 µM | 1.53 µM | 5.42 µM | 1420 nM | 5.33 µM | 1.49 µM | 5.48 µM | 1530 nM | 5.95 µM | 1.74 µM | 6.91 µM | 2.09 µM | 8.5 µM | 1.66 µM | 6.69 µM | 1540 nM | 5.25 µM | 1.93 µM | 7.05 µM |
| Clc1nccc2c(-c3csc(-c4c[nH]c5ccc(Br)cc45)n3)c[nH]c12 | 2.48 µM | 5.61 µM | 2.02 µM | 12.6 µM | 2350 nM | 10.5 µM | 3.35 µM | 14.4 µM | 2150 nM | 5.7 µM | 4.09 µM | 16.4 µM | 2.78 µM | 8.27 µM | 2.42 µM | 8.57 µM | 1870 nM | 6.14 µM | 1.76 µM | 14 µM |
| O=C(O)C1=C/C(=C(/c2ccccc2)c2cc(C(=O)O)c(O)c3ccccc23)c2ccccc2C1=O | – | > 100 µM | – | > 100 µM | – | > 100 µM | – | > 100 µM | – | > 100 µM | – | > 100 µM | – | > 100 µM | – | > 100 µM | – | > 100 µM | – | > 100 µM |
| CN(C)c1ccc(/C=C\c2ccnc3ccccc23)cc1 | 3.56 µM | > 44.7 µM | 20.7 µM | > 100 µM | 5340 nM | > 52.6 µM | 8.81 µM | > 74.1 µM | 3660 nM | 51 µM | 21.2 µM | > 100 µM | 5.25 µM | > 100 µM | 3.63 µM | 63.4 µM | 5170 nM | 25.8 µM | 12.1 µM | > 88.5 µM |
| O=C(CS(=O)(=O)c1nc2ccccc2nc1-c1ccccc1)Nc1ccc(F)cc1 | > 100 µM | > 100 µM | > 100 µM | > 100 µM | 25700 nM | > 100 µM | 33.9 µM | > 100 µM | 31000 nM | 97.7 µM | 51.9 µM | > 100 µM | > 100 µM | > 100 µM | > 100 µM | > 100 µM | 18700 nM | 60.2 µM | 36.1 µM | > 100 µM |
| O=C1NC(=NCc2ccccc2Cl)S/C1=C\c1ccc2ncccc2c1 | 9.59 µM | > 25 µM | 9.54 µM | > 25 µM | 3980 nM | > 25 µM | 13.1 µM | > 25 µM | > 21800 nM | > 25 µM | 8.5 µM | > 22.3 µM | 15.6 µM | > 25 µM | 13.5 µM | > 25 µM | 3590 nM | > 25 µM | 11.2 µM | > 25 µM |
| Oc1ccc(Br)cc1C=Nc1cccc(C(F)(F)F)c1 | – | > 100 µM | – | > 100 µM | – | > 100 µM | – | > 100 µM | – | > 100 µM | – | 49 µM | – | > 100 µM | – | > 100 µM | – | 99.1 µM | – | > 100 µM |
| C[C@@]1([C@H](OC(=O)c2ccccc2)C(N)=O)CO1 | 16.9 µM | 41.5 µM | 10.5 µM | 34.3 µM | 17500 nM | 58.6 µM | 13.7 µM | 33.9 µM | 33400 nM | > 100 µM | 22.1 µM | > 100 µM | 28.3 µM | 66 µM | 20.2 µM | 61.5 µM | 21600 nM | 55.7 µM | 27.2 µM | > 100 µM |
| NS(=O)(=O)c1ccc(Nc2cc(-c3ccc(O)c(F)c3)[nH]n2)cc1 | > 25 µM | > 25 µM | > 25 µM | > 25 µM | > 25000 nM | > 25 µM | > 25 µM | > 25 µM | 10300 nM | > 25 µM | 11.4 µM | > 25 µM | > 25 µM | > 25 µM | > 25 µM | > 25 µM | 13500 nM | > 25 µM | > 25 µM | > 25 µM |
| COC(=O)NC1C(C)OC(OC2C/C=C(/C)C3C=CC4C(OC5CC(OC6CCC(OC7CC(O)C(OC8CCC(O)C(C)O8)C(C)O7)C(C)O6)C(OC(C)=O)C(C)O5)C(C)CC(C)C4C3(C)/C(O)=C3/C(=O)OC4(CC(C=O)=CC(O)C4/C=C\2C)C3=O)CC1(C)[N+](=O)[O-] (stereo not given) | 0.271 µM | 2.76 µM and 4.15 µM | – | 2.72 µM | 146 nM | 2.05 µM and 0.289 µM | 0.27 µM | 3.32 µM and 0.891 µM | 71.4 nM | 2.04 µM and 0.337 µM | 0.0551 µM | – | 2.85 µM | 7.51 µM and 8.97 µM | 0.171 µM | 2.22 µM and 0.403 µM | 28.7 nM | – | – | 5.07 µM |
| O=C1NC(=S)S/C1=C\c1cn(-c2ccccc2)nc1-c1ccccc1 | 3.33 µM | 17.2 µM | 7.4 µM | 21.4 µM | 5620 nM | 21.3 µM | 9.93 µM | > 100 µM | 6240 nM | 21.7 µM | 4.18 µM | 19.4 µM | 11.9 µM | 42.2 µM | 2.68 µM | 15.9 µM | 5530 nM | 21.1 µM | 12.6 µM | > 100 µM |

Source: PubChem BioAssay (NCI)
